In patent US6737383B1, “Herbicidal oxadiazolidines” (priority 1999, dated 2004):

Tests used:
blackgrass = test: Test B pre/postemergence blackgrass; format: in vivo, Alopecurus myosuroides; settings: for Blackgrass plant response rating (0 to 10 scale): 0 is no effect
Summary of the method: (§1)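 Response is a visual 0-to-10 score relative to untreated plants, where 0 means no effect and 10 means complete control, taken twelve to sixteen days after application. Treatments went onto soil at planting and onto foliage of 1- to 4-leaf plants, using a surfactant-containing non-phytotoxic solvent.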

bamyardgrass = test: Test B flood test barnyardgrass; format: in vivo, Echinochloa crus-galli
Summary of the method: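 Each value is a visual injury score relative to controls, with 10 meaning complete control and 0 no effect. Evaluation took place twelve to sixteen days after the 2-leaf-stage plants were treated and kept in the greenhouse.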

crabgrass = test: Test B pre/postemergence crabgrass; format: in vivo, Digitaria sanguinalis; settings: for Crabgrass plant response rating (0 to 10 scale): 0 is no effect
Summary of the method: as §1

morningglory = test: Test B pre/postemergence morningglory; format: in vivo, Ipomoea hederacea; settings: for Morningglory plant response rating (0 to 10 scale): 0 is no effect
Summary of the method: as §1

[1] = Postemergence, Rate 125 g/ha, scale of 0 to 10 where 0 is no effect and 10 is complete control
[2] = Postemergence, Rate 250 g/ha, scale 0 to 10, 0 no effect, 10 complete control
[3] = Preemergence, Rate 62 g/ha, scale 0 to 10 (0 no effect, 10 complete control)
[4] = Preemergence, Rate 125 g/ha, scale 0 to 10 (0 no effect, 10 complete control)
[5] = Preemergence, Rate 250 g/ha, scale of 0 to 10 where 0 is no effect and 10 is complete control
[6] = Preemergence, Rate 500 g/ha, scale 0 (no effect) to 10 (complete control)
[7] = Rate 62 g/ha, Postemergence, scale of 0 to 10 where 0 is no effect and 10 is complete control
[8] = Rate 500 g/ha, Postemergence, scale 0 to 10, 0 no effect, 10 complete control
[9] = Postemergence, Rate 62 g/ha, scale 0 to 10, 0 is no effect, 10 is complete control
[10] = Rate 500 g/ha, listed under Postemergence (flood test species), scale 0 to 10, 0 no effect, 10 complete control
[11] = Preemergence, Rate 125 g/ha, 10 is complete control
[12] = Preemergence, Rate 500 g/ha, scale 0 to 10 (0 no effect, 10 complete control)
[13] = Rate 250 g/ha, Postemergence, scale 0 to 10, 0 is no effect, 10 is complete control
[14] = Postemergence (flood test species), Rate 125 g/ha, scale of 0 to 10 where 0 is no effect and 10 is complete control
[15] = Rate 250 g/ha, Postemergence (flood test), scale 0 to 10, 0 is no effect, 10 is complete control
[16] = Rate 500 g/ha, headed Pre-emergence (flood test species), scale 0 to 10 (0 no effect, 10 complete control)
[17] = Preemergence, Rate 250 g/ha, scale 0 to 10, 0 is no effect, 10 is complete control
[18] = Rate 500 g/ha, Postemergence, scale 0 to 10
[19] = Rate 62 g/ha, Postemergence section, flood test species, scale of 0 to 10 where 0 is no effect and 10 is complete control
[20] = Preemergence, Rate 62 g/ha, scale of 0 to 10 where 0 is no effect and 10 is complete control
[21] = Rate 125 g/ha, Postemergence, scale 0 to 10

Row | SMILES | Blackgrass plant response rating (blackgrass; [1]) | Blackgrass plant response rating (blackgrass; [3]) | Blackgrass plant response rating (blackgrass; [7]) | Barnyardgrass plant response rating (bamyardgrass; [10]) | Crabgrass plant response rating (crabgrass; [1]) | Crabgrass plant response rating (crabgrass; [3]) | Crabgrass plant response rating (crabgrass; [7]) | Morningglory plant response rating (morningglory; [1]) | Morningglory plant response rating (morningglory; [3]) | Morningglory plant response rating (morningglory; [7]) | Blackgrass plant response rating (0 to 10 scale) (blackgrass; [11]) | Blackgrass plant response rating (blackgrass; [12]) | Plant response rating, Blackgrass (blackgrass; [13]) | Barnyardgrass plant response rating (bamyardgrass; [14]) | Plant response rating, Barnyardgrass (bamyardgrass; [15]) | Crabgrass plant response rating (0 to 10 scale) (crabgrass; [11]) | Crabgrass plant response rating (crabgrass; [12]) | Plant response rating, Crabgrass (crabgrass; [13]) | Morningglory plant response rating (0 to 10 scale) (morningglory; [11]) | Morningglory plant response rating (morningglory; [12]) | also measured
1 | CCc1noc(C)c1-n1c(=O)on(C(=O)N(c2ccc(F)cc2)C(C)C)c1=O [Compound 101] | 0 | 0 | 0 | 0 | 0 | 0 | 0 | 0 | 0 | 0 |  |  |  |  |  |  |  |  |  |  | Blackgrass plant response rating (blackgrass; [2]): 0; Plant response rating, Blackgrass (blackgrass; [4]): 0; Plant response rating, Blackgrass (blackgrass; [5]): 0; Blackgrass plant response rating (blackgrass; [6]): 0; Blackgrass plant response rating (blackgrass; [8]): 0; Barnyardgrass plant response rating (bamyardgrass; [9]): 0; Barnyardgrass plant response rating (bamyardgrass; Rate 125 g/ha, Postemergence section (flood test species), scale 0 to 10, 0 no effect, 10 complete control): 0; Barnyardgrass plant response rating (bamyardgrass; flood test, listed under Postemergence, Rate 250 g/ha, scale 0 to 10, 0 no effect, 10 complete control): 0; Crabgrass plant response rating (crabgrass; [2]): 0; Plant response rating, Crabgrass (crabgrass; [4]): 0; Plant response rating, Crabgrass (crabgrass; [5]): 0; Crabgrass plant response rating (crabgrass; [6]): 0; Crabgrass plant response rating (crabgrass; [8]): 0; Morningglory plant response rating (morningglory; [2]): 1; Plant response rating, Morningglory (morningglory; [4]): 0; Plant response rating, Morningglory (morningglory; [5]): 0; Morningglory plant response rating (morningglory; [6]): 0; Morningglory plant response rating (morningglory; [8]): 1
2 | CC(C)N(C(=O)n1oc(=O)n(-c2cnn(C)c2Cl)c1=O)c1ccccc1 [Compound 122] | 0 | 0 | 0 | 0 | 3 | 4 | 0 | 3 | 0 | 1 | 0 | 3 | 4 | 0 | 0 | 4 | 8 | 4 | 0 | 0 | Plant response rating, Blackgrass (blackgrass; [5]): 0; Blackgrass plant response rating (blackgrass; [8]): 6; Barnyardgrass plant response rating (bamyardgrass; [9]): 0; Barnyardgrass plant response rating (bamyardgrass; Rate 250 g/ha, headed Pre-emergence (flood test species), scale 0 to 10 (0 no effect, 10 complete control)): 0; Plant response rating, Barnyardgrass (bamyardgrass; [16]): 0; Barnyardgrass plant response rating (bamyardgrass; Rate 1000 g/ha, Pre-emergence (as headed), scale 0 to 10): 0; Barnyardgrass plant response rating (bamyardgrass; Rate 2000 g/ha, Pre-emergence (as headed), scale 0 to 10, 0 no effect, 10 complete control): 0; Plant response rating, Crabgrass (crabgrass; [5]): 8; Crabgrass plant response rating (crabgrass; [8]): 5; Plant response rating, Morningglory (morningglory; [5]): 0; Plant response rating, Morningglory (morningglory; [13]): 4; Morningglory plant response rating (morningglory; [8]): 4
3 | CCOC(=O)Cn1c(=O)on(C(=O)N(c2ccc(F)cc2)C(C)C)c1=O [Compound 128] | 0 | 0 | 0 | 0 | 0 | 0 | 0 | 0 | 0 | 0 | 0 | 2 | 0 | 0 | 0 | 0 | 0 | 0 | 0 | 0 | Blackgrass plant response rating (blackgrass; [17]): 0; Blackgrass plant response rating (blackgrass; [18]): 0; Crabgrass plant response rating (crabgrass; [17]): 0; Crabgrass plant response rating (crabgrass; [18]): 0; Morningglory plant response rating (morningglory; [17]): 0; Plant response rating, Morningglory (morningglory; [13]): 0; Morningglory plant response rating (morningglory; [18]): 0
4 | Cc1ccccc1Cn1c(=O)on(C(=O)N(c2ccc(Cl)cc2)C(C)C)c1=O [Compound 136] | 0 | 0 | 0 | 0 | 2 | 0 | 1 | 10 | 0 | 6 | 4 | 6 | 3 | 0 | 0 | 4 | 8 | 8 | 0 | 0 | Blackgrass plant response rating (blackgrass; [17]): 4; Blackgrass plant response rating (blackgrass; [18]): 5; Barnyardgrass plant response rating (bamyardgrass; [19]): 0; Crabgrass plant response rating (crabgrass; [17]): 7; Crabgrass plant response rating (crabgrass; [18]): 9; Morningglory plant response rating (morningglory; [17]): 0; Plant response rating, Morningglory (morningglory; [13]): 10; Morningglory plant response rating (morningglory; [18]): 10
5 | CC(C)N(C(=O)n1oc(=O)n(-c2nc(Cl)sc2Cl)c1=O)c1ccc(F)cc1 [Compound 160] | 0 |  | 0 |  | 0 |  | 0 | 0 |  | 0 | 0 | 0 | 0 | 0 | 0 | 0 | 0 | 0 | 0 | 0 | Blackgrass plant response rating (blackgrass; [20]): 0; Blackgrass plant response rating (blackgrass; [17]): 0; Blackgrass plant response rating (blackgrass; [18]): 0; Barnyardgrass plant response rating (bamyardgrass; [19]): 0; Barnyardgrass plant response rating (bamyardgrass; Rate 500 g/ha, listed under Postemergence (flood test species), scale 0 to 10): 0; Crabgrass plant response rating (crabgrass; [20]): 0; Crabgrass plant response rating (crabgrass; [17]): 0; Crabgrass plant response rating (crabgrass; [18]): 0; Morningglory plant response rating (morningglory; [20]): 0; Morningglory plant response rating (morningglory; [17]): 0; Plant response rating, Morningglory (morningglory; [13]): 0; Morningglory plant response rating (morningglory; [18]): 0
6 | Cc1ccccc1-n1c(=O)on(C(=O)N(c2ccc(-c3ccccc3)cc2)C(C)C)c1=O [Compound 187] |  |  | 0 |  |  |  | 0 |  |  | 0 | 0 | 0 |  |  |  | 0 | 0 |  | 0 | 0 | Blackgrass plant response rating (blackgrass; [20]): 0; Blackgrass plant response rating (blackgrass; [17]): 0; Blackgrass plant response rating (blackgrass; [21]): 0; Plant response rating (0 to 10; 0 is no effect, 10 is complete control), Blackgrass (blackgrass; Rate 250 g/ha, Postemergence): 0; Blackgrass plant response rating (blackgrass; [18]): 0; Barnyardgrass plant response rating (bamyardgrass; Rate 62 g/ha, headed Pre-emergence (flood test species), scale 0 to 10 (0 no effect, 10 complete control)): 0; Barnyardgrass plant response rating (bamyardgrass; Rate 125 g/ha, Pre-emergence, flood test species, scale 0 to 10 where 0 is no effect and 10 is complete control): 0; Barnyardgrass plant response rating (bamyardgrass; Rate 250 g/ha, Pre-emergence, flood-test species, scale 0 to 10, 0 is no effect, 10 is complete control): 0; Plant response rating, Barnyardgrass (bamyardgrass; [16]): 0; Crabgrass plant response rating (crabgrass; [20]): 0; Crabgrass plant response rating (crabgrass; [17]): 0; Crabgrass plant response rating (crabgrass; [21]): 0; Plant response rating (0 to 10; 0 is no effect, 10 is complete control), Crabgrass (crabgrass; Rate 250 g/ha, Postemergence): 0; Crabgrass plant response rating (crabgrass; [18]): 0; Morningglory plant response rating (morningglory; [20]): 0; Morningglory plant response rating (morningglory; [17]): 0; Morningglory plant response rating (morningglory; [21]): 0; Plant response rating (0 to 10; 0 is no effect, 10 is complete control), Morningglory (morningglory; Rate 250 g/ha, Postemergence): 0; Morningglory plant response rating (morningglory; [18]): 0
